Measurements from PubChem BioAssay (NCI).
Several values for one entry are separate records, joined by “and”; a condition that tells them apart may be missing. Equal entries are not always repeated.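 These data come from cells grown in 96-well plates and exposed to compound for 48 hours at five concentrations. Here, GI50 denotes the concentration required for 50% inhibition of growth. TGI denotes the concentration required for complete inhibition of growth.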

Tests used:
Assay in all cases: DTP human tumour cell line panel, 48 h; in the data active = GI50 below about 0.43 µM; inactive = the rest
SK-OV-3 ovarian = test system: SK-OV-3 ovarian
BT-549 breast = test system: BT-549 breast
OVCAR-3 ovarian = test system: OVCAR-3 ovarian
UACC-62 melanoma = test system: UACC-62 melanoma
M14 melanoma = test system: M14 melanoma
SNB-75 CNS = test system: SNB-75 CNS
HOP-62 NSCLC = test system: HOP-62 NSCLC
HL-60(TB) leukemia = test system: HL-60(TB) leukemia
HCT-116 colon = test system: HCT-116 colon
HCC-2998 colon = test system: HCC-2998 colon
EKVX NSCLC = test system: EKVX NSCLC
SR leukemia = test system: SR leukemia
RXF 393 renal = test system: RXF 393 renal
SK-MEL-2 melanoma = test system: SK-MEL-2 melanoma
MDA-MB-231 breast = test system: MDA-MB-231 breast
CCRF-CEM leukemia = test system: CCRF-CEM leukemia
UACC-257 melanoma = test system: UACC-257 melanoma
OVCAR-8 ovarian = test system: OVCAR-8 ovarian
786-0 renal = test system: 786-0 renal
CAKI-1 renal = test system: CAKI-1 renal
ACHN renal = test system: ACHN renal
K-562 leukemia = test system: K-562 leukemia
KM12 colon = test system: KM12 colon
SK-MEL-28 melanoma = test system: SK-MEL-28 melanoma
NCI-H522 lung = test system: NCI-H522 lung
OVCAR-4 ovarian = test system: OVCAR-4 ovarian
MCF7 breast = test system: MCF7 breast
NCI-H460 lung = test system: NCI-H460 lung
MOLT-4 leukemia = test system: MOLT-4 leukemia
HS 578T breast = test system: HS 578T breast
SF-539 CNS = test system: SF-539 CNS
SF-295 CNS = test system: SF-295 CNS
PC-3 prostate = test system: PC-3 prostate
SK-MEL-5 melanoma = test system: SK-MEL-5 melanoma
UO-31 renal = test system: UO-31 renal
U251 CNS = test system: U251 CNS
NCI/ADR-RES ovarian = test system: NCI/ADR-RES ovarian
A549 NSCLC = test system: A549 NSCLC
RPMI-8226 leukemia = test system: RPMI-8226 leukemia
SF-268 CNS = test system: SF-268 CNS
HCT-15 colon = test system: HCT-15 colon
HT29 colon = test system: HT29 colon
MALME-3M melanoma = test system: MALME-3M melanoma
SW-620 colon = test system: SW-620 colon
NCI-H226 lung = test system: NCI-H226 lung
OVCAR-5 ovarian = test system: OVCAR-5 ovarian
HOP-92 NSCLC = test system: HOP-92 NSCLC
IGROV1 ovarian = test system: IGROV1 ovarian
SNB-19 CNS = test system: SNB-19 CNS
MDA-MB-435 = test system: MDA-MB-435
COLO 205 colon = test system: COLO 205 colon
TK-10 renal = test system: TK-10 renal
SN12C renal = test system: SN12C renal
T-47D breast = test system: T-47D breast
DU-145 prostate = test system: DU-145 prostate
A498 renal = test system: A498 renal
NCI-H23 lung = test system: NCI-H23 lung
LOX IMVI melanoma = test system: LOX IMVI melanoma

Cc1cc(NS(=O)(=O)c2ccc(N=Nc3c(O)c(C(=O)O)cc4ccccc34)cc2)nc(C)n1
> 100 µM: TGI (SK-OV-3 ovarian) | TGI (BT-549 breast) | TGI (OVCAR-3 ovarian) | TGI (UACC-62 melanoma) | TGI (M14 melanoma) | TGI (SNB-75 CNS) | TGI (HOP-62 NSCLC) | TGI (HL-60(TB) leukemia) | TGI (HCT-116 colon) | TGI (HCC-2998 colon) | TGI (EKVX NSCLC) | TGI (SR leukemia) | TGI (RXF 393 renal) | TGI (SK-MEL-2 melanoma) | TGI (MDA-MB-231 breast) | TGI (CCRF-CEM leukemia) | TGI (UACC-257 melanoma) | TGI (OVCAR-8 ovarian) | TGI (786-0 renal) | TGI (CAKI-1 renal) | TGI (ACHN renal) | TGI (K-562 leukemia) | TGI (KM12 colon) | TGI (SK-MEL-28 melanoma) | TGI (NCI-H522 lung) | TGI (OVCAR-4 ovarian) | TGI (MCF7 breast) | TGI (NCI-H460 lung) | TGI (MOLT-4 leukemia) | TGI (HS 578T breast) | TGI (SF-539 CNS) | TGI (SF-295 CNS) | TGI (PC-3 prostate) | TGI (SK-MEL-5 melanoma) | TGI (UO-31 renal) | TGI (U251 CNS) | TGI (NCI/ADR-RES ovarian) | TGI (A549 NSCLC) | TGI (RPMI-8226 leukemia) | TGI (SF-268 CNS) | TGI (HCT-15 colon) | TGI (HT29 colon) | TGI (MALME-3M melanoma) | TGI (SW-620 colon) | TGI (NCI-H226 lung) | TGI (OVCAR-5 ovarian) | TGI (HOP-92 NSCLC) | TGI (IGROV1 ovarian) | TGI (SNB-19 CNS) | TGI (MDA-MB-435) | TGI (COLO 205 colon) | TGI (TK-10 renal)

COc1cc(C2c3cc4c(cc3[C@@H](Nc3ccccc3)C3CO[C@@H](OC)[C@H]23)OCO4)cc(OC)c1O (stereo partly specified)
17.3 µM: TGI (HS 578T breast)
12.4 µM: TGI (SF-295 CNS)
10.7 µM: TGI (HT29 colon)
6.34 µM: TGI (MOLT-4 leukemia)
15.4 µM: TGI (786-0 renal)
10.2 µM: TGI (RPMI-8226 leukemia)
23.8 µM: TGI (OVCAR-5 ovarian)
11.3 µM: TGI (CCRF-CEM leukemia)
12.1 µM: TGI (SF-539 CNS) | TGI (A549 NSCLC)
22.6 µM: TGI (SR leukemia)
10.6 µM: TGI (ACHN renal)
8.24 µM: TGI (HL-60(TB) leukemia)
8.03 µM: TGI (UO-31 renal)
> 25 µM: TGI (SK-OV-3 ovarian) | TGI (M14 melanoma) | TGI (SNB-75 CNS) | TGI (HOP-62 NSCLC) | TGI (HCT-116 colon) | TGI (HCC-2998 colon) | TGI (EKVX NSCLC) | TGI (UACC-257 melanoma) | TGI (OVCAR-8 ovarian) | TGI (K-562 leukemia) | TGI (KM12 colon) | TGI (SK-MEL-28 melanoma) | TGI (NCI-H522 lung) | TGI (OVCAR-4 ovarian) | TGI (MCF7 breast) | TGI (NCI-H460 lung) | TGI (PC-3 prostate) | TGI (SK-MEL-5 melanoma) | TGI (SN12C renal) | TGI (U251 CNS) | TGI (NCI/ADR-RES ovarian) | TGI (SF-268 CNS) | TGI (HCT-15 colon) | TGI (SW-620 colon) | TGI (IGROV1 ovarian) | TGI (SNB-19 CNS) | TGI (MDA-MB-435) | TGI (COLO 205 colon) | TGI (TK-10 renal) | TGI (T-47D breast)

CC(=O)OCC1OC(n2c(-c3ccccc3)cc(-c3ccccc3)c(C#N)c2=O)C(OC(C)=O)C(OC(C)=O)C1OC(C)=O (stereo unspecified)
inactive: GI50 (SNB-75 CNS) 22 µM and 98.5 µM | GI50 (RPMI-8226 leukemia) 16 µM and 39.7 µM
> 100 µM: TGI (SNB-75 CNS) | TGI (RXF 393 renal) | TGI (RPMI-8226 leukemia)

CC(=O)OC[C@]12CC[C@H]3[C@@H](C[C@H]4O[C@]45CC=CC(=O)[C@]35C)[C@]1(O)CC[C@@]2(O)[C@@](C)(O)C1CC(C)=C(C)C(=O)O1 (stereo partly specified)
> 32 µM: TGI (SN12C renal)
> 34.9 µM: TGI (OVCAR-4 ovarian)
> 100 µM: TGI (K-562 leukemia) | TGI (NCI/ADR-RES ovarian) | TGI (RPMI-8226 leukemia)
> 32.5 µM: TGI (SF-295 CNS)
> 25.3 µM: TGI (MCF7 breast)
> 38 µM: TGI (SR leukemia)
> 32.8 µM: TGI (UACC-257 melanoma) | TGI (DU-145 prostate)
> 35.4 µM: TGI (SNB-19 CNS)
> 25 µM: TGI (UO-31 renal)
inactive: GI50 (NCI/ADR-RES ovarian) > 23.6 µM | GI50 (RPMI-8226 leukemia) > 100 µM
> 26.1 µM: TGI (PC-3 prostate)
> 36.2 µM: TGI (MOLT-4 leukemia)
> 23.7 µM: TGI (SK-OV-3 ovarian)
> 33.6 µM: TGI (HCT-15 colon)
> 23.6 µM: TGI (MDA-MB-231 breast)
> 30.4 µM: TGI (EKVX NSCLC)
> 32.1 µM: TGI (OVCAR-8 ovarian)
> 20.1 µM: TGI (OVCAR-5 ovarian)
> 20 µM: TGI (NCI-H226 lung)

COC(=O)c1ccc2c(c1)n(Cc1ccc3ccccc3c1)c[n+]2Cc1ccc2ccccc2c1
2.78 µM: TGI (OVCAR-3 ovarian) | TGI (SK-MEL-5 melanoma)
13.7 µM: TGI (OVCAR-5 ovarian)
36.8 µM: TGI (A549 NSCLC)
3.52 µM: TGI (DU-145 prostate)
26.8 µM: TGI (HCT-15 colon)
4.44 µM: TGI (NCI-H226 lung)
13.4 µM: TGI (SK-OV-3 ovarian)
> 100 µM: TGI (NCI/ADR-RES ovarian)
2.83 µM: TGI (KM12 colon)
29.8 µM: TGI (ACHN renal)
4.28 µM: TGI (HOP-62 NSCLC)
4.65 µM: TGI (HS 578T breast)
6.49 µM: TGI (A498 renal)
63.9 µM: TGI (UO-31 renal)
5.56 µM: TGI (SF-295 CNS)
4.46 µM: TGI (CCRF-CEM leukemia)
2.75 µM: TGI (MDA-MB-435)
20.4 µM: TGI (EKVX NSCLC)
3.02 µM: TGI (SF-268 CNS)
inactive: GI50 (A498 renal) 2.23 µM | GI50 (SK-OV-3 ovarian) 2.82 µM | GI50 (OVCAR-3 ovarian) 1.37 µM | GI50 (HOP-62 NSCLC) 1.8 µM | GI50 (EKVX NSCLC) 3.01 µM | GI50 (CCRF-CEM leukemia) 1.79 µM | GI50 (ACHN renal) 10.2 µM | GI50 (KM12 colon) 1.37 µM | GI50 (HS 578T breast) 1.76 µM | GI50 (SF-295 CNS) 1.86 µM | GI50 (SK-MEL-5 melanoma) 1.46 µM | GI50 (UO-31 renal) 13 µM | GI50 (NCI/ADR-RES ovarian) 24 µM | GI50 (A549 NSCLC) 11.3 µM | GI50 (SF-268 CNS) 1.5 µM | GI50 (HCT-15 colon) 4.48 µM | GI50 (DU-145 prostate) 1.77 µM | GI50 (NCI-H226 lung) 1.96 µM | GI50 (OVCAR-5 ovarian) 2.12 µM | GI50 (MDA-MB-435) 1.33 µM

CCOC(=O)c1c(SC(=O)/C=C/c2ccccc2)n(-c2ccccc2)c(=S)n(-c2ccccc2)c1=O
> 100 µM: TGI (A498 renal) | TGI (SK-OV-3 ovarian) | TGI (OVCAR-3 ovarian) | TGI (UACC-62 melanoma) | TGI (M14 melanoma) | TGI (SNB-75 CNS) | TGI (HOP-62 NSCLC) | TGI (HCT-116 colon) | TGI (HCC-2998 colon) | TGI (EKVX NSCLC) | TGI (SR leukemia) | TGI (RXF 393 renal) | TGI (MDA-MB-231 breast) | TGI (CCRF-CEM leukemia) | TGI (UACC-257 melanoma) | TGI (OVCAR-8 ovarian) | TGI (786-0 renal) | TGI (CAKI-1 renal) | TGI (ACHN renal) | TGI (NCI-H23 lung) | TGI (K-562 leukemia) | TGI (KM12 colon) | TGI (SK-MEL-28 melanoma) | TGI (NCI-H522 lung) | TGI (OVCAR-4 ovarian) | TGI (MCF7 breast) | TGI (NCI-H460 lung) | TGI (MOLT-4 leukemia) | TGI (HS 578T breast) | TGI (SF-539 CNS) | TGI (SF-295 CNS) | TGI (PC-3 prostate) | TGI (LOX IMVI melanoma) | TGI (SN12C renal) | TGI (U251 CNS) | TGI (NCI/ADR-RES ovarian) | TGI (A549 NSCLC) | TGI (SF-268 CNS) | TGI (HCT-15 colon) | TGI (DU-145 prostate) | TGI (HT29 colon) | TGI (MALME-3M melanoma) | TGI (SW-620 colon) | TGI (NCI-H226 lung) | TGI (OVCAR-5 ovarian) | TGI (HOP-92 NSCLC) | TGI (IGROV1 ovarian) | TGI (SNB-19 CNS) | TGI (MDA-MB-435) | TGI (COLO 205 colon) | TGI (TK-10 renal) | TGI (T-47D breast)
